Tests used:
MMP-1 = biological target: T1, MMP-1 (Homo sapiens, UniProt P03956); test: MMP-1 inhibition (thiopeptide or fluorescent peptide substrate); assay type: biochemical
T1 sequence (P03956 100-469): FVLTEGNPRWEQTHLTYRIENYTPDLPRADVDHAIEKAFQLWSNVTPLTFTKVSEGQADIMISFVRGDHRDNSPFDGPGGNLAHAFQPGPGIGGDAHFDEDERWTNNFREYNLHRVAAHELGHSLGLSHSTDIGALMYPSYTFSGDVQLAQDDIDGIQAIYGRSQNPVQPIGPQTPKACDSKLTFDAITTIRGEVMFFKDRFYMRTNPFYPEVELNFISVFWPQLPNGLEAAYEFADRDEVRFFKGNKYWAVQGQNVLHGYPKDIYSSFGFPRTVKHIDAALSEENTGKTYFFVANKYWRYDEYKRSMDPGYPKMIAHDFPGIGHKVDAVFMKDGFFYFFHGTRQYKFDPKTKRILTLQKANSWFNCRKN
Experimental: (§1) These standard pharmacological test procedures are based on the cleavage of a thiopeptide substrates such as Ac-Pro-Leu-Gly(2-mercapto-4-methyl-pentanoyl)-Leu-Gly-OEt by the matrix metalloproteinases MMP-1, MMP-13 (collagenases) or MMP-9 (gelatinase), which results in the release of a substrate product that reacts calorimetrically with DTNB (5,5′-dithiobis(2-nitro-benzoic acid)). The enzyme activity is measured by the rate of the color increase. The thiopeptide substrate is made up fresh as a 20 mM stock in 100% DMSO and the DTNB is dissolved in 100% DMSO as a 100 mM stock and stored in the dark at room temperature. […] The buffer enzyme, vehicle or inhibitor, and DTNB/substrate are added in this order to a 96 well plate (total reaction volume of 200 μl) and the increase in color is monitored spectrophotometrically for 5 minutes at 405 nm on a plate reader and the increase in color over time is plotted as a linear line.
(§2) Alternatively, a fluorescent peptide substrate is used. […] Upon cleavage of the substrate by an MMP, the fluorescence that is generated is quantitated on the fluorescence plate reader. […] The reaction is read (excitation 340 nm, emission 444 nm) for 10 min. and the increase in fluorescence over time is plotted as a linear line.
(§3) For either the thiopeptide or fluorescent peptide test procedures, the slope of the line is calculated and represents the reaction rate. […]

MMP-9 = MMP-9 (Homo sapiens, UniProt P14780); test: MMP-9 inhibition (thiopeptide or fluorescent peptide substrate); assay type: biochemical
Sequence of MMP-9 (P14780 94-707): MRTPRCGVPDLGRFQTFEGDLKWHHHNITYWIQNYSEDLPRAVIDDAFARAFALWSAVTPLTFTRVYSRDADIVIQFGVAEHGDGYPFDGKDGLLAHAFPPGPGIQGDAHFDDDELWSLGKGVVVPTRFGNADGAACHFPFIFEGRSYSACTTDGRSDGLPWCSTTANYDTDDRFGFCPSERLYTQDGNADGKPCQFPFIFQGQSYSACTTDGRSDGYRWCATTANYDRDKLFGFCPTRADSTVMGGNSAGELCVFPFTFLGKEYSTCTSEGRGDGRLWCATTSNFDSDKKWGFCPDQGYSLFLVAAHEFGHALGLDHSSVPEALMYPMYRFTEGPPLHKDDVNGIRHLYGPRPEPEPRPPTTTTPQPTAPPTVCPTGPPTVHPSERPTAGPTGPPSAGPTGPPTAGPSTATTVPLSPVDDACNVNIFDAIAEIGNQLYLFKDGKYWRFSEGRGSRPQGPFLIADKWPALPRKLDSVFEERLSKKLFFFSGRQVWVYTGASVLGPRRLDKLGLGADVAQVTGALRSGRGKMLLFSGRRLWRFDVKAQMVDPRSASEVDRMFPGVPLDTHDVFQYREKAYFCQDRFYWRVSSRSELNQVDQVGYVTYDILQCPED
Experimental: as §1, §2, §3

MMP-13 = MMP-13 (Homo sapiens, UniProt P45452); test: MMP-13 inhibition (thiopeptide or fluorescent peptide substrate); assay type: biochemical
Experimental: as §1, §2, §3

TACE = TACE (Homo sapiens, UniProt P78536); test: TACE inhibition (fluorescent peptidyl substrate); assay type: biochemical
Sequence of TACE (P78536 215-824): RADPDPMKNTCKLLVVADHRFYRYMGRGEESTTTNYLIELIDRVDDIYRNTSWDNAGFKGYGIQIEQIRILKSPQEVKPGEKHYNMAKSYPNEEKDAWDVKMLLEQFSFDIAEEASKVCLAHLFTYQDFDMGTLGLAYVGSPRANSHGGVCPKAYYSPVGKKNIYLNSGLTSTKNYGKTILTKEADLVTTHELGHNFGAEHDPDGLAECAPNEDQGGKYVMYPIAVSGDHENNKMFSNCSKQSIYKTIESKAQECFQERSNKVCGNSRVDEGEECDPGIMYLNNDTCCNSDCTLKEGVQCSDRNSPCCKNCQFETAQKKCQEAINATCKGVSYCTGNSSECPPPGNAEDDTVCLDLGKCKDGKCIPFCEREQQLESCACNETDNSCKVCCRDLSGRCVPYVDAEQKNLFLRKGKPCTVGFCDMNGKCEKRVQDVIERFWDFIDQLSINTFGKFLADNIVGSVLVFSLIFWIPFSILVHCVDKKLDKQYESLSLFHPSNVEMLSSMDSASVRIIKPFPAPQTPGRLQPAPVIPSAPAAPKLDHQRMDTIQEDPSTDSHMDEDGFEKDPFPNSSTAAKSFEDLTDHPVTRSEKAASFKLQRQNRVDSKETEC
Experimental: Using 96-well black microtiter plates, each well receives a solution composed of 10 μL TACE (final concentration 1 μg/mL), 70 μL Tris buffer, pH 7.4 containing 10% glycerol (final concentration 10 mM), and 10 μL of test compound solution in DMSO (final concentration 1 μM, DMSO concentration <1%) and incubated for 10 minutes at room temperature. The reaction is initiated by addition of a fluorescent peptidyl substrate (final concentration 100 μM) to each well and then shaking on a shaker for 5 sec.
The reaction is read (excitation 340 nm, emission 420 nm) for 10 min. and the increase in fluorescence over time is plotted as a linear line. The slope of the line is calculated and represents the reaction rate.
The linearity of the reaction rate is confirmed (r^2>0.85). The mean (x±sem) of the control rate is calculated and compared for statistical significance (p<0.05) with drug-treated rates using Dunnett's multiple comparison test. Dose-response relationships can be generate using multiple doses of drug and IC50 values with 95% CI are estimated using linear regression.

THP-1 cells = test: THP-1 soluble protein assay (LPS-stimulated THP-1 cells, ELISA); assay type: cell-based; conditions: Homo sapiens
Text: Mitogenic stimulation of THP-1 cells cause differentiation into macrophage like cells with concomitant secretion of tumor necrosis factor (TNF-_) and TNF receptor (TNF-R p75/80 and TNF-R p55/60) and Interleukin-8 (IL-8), among other proteins. In addition, non-stimulated THP-1 cells shed both the p75/80 and the p55/60 receptors over time. The release of membrane bound TNF-_ and possibly TNF-R p75/80 and TNF-R p55/60, but not IL-8, is mediated by an enzyme called TNF-_ converting enzyme or TACE.
THP-1 cells (from ATCC) are a human monocytic cell line which were obtained from the peripheral blood of a person with acute monocytic leukemia. […]
To perform an assay, the THP-1 cells are co-incubated in a 24 well plate with […] of a 24 mg/ml stock of Lipopolysacharide (LPS) (Calbiochem Lot#B13189) at 37iC in 5% CO2 at a concentration of 1.091×10^6 cells/ml (1.1 ml/well) for a total of 24 hours. […] Compounds can be evaluated for their effect on basal (non-stimulated) shedding of the receptors by replacing the LPS with […] of THP-1 media. […]
In addition, at the 24 hours timepoint, and the cells for each treatment group are collected by resuspension in 500 μl/well of THP-1 media and transferred into a FACS tube. […] The samples are run on a Becton Dickinson FaxCaliber FLOW cytometry machine and the amount of dye taken up by each cell is measured in the high red wavelength (FL3). […]

IC50 (MMP-1): 6300 nM
IC50 (MMP-9): 2700 nM
IC50 (MMP-13): 679 nM
IC50 (TACE): 273 nM
Compound: CC#CCOc1ccc(S(=O)(=O)N(C)[C@H](C)CS)cc1 [Example 8, 4-But-2-ynyloxy-N-((1R)-2-mercapto-1-methyl-ethyl)-N-methyl-benzenesulfonamide]
inhibition at 3 µM (THP-1 cells): 3%
